Laboratory results published in publication PMC6624297 (Cell Death & Disease, 2019).

How the values were obtained:
GES-1 cell line = assay: Selectivity index against GES-1; format: cell-based; settings: SI = CC50/IC50
A549 cells [1] = assay: Transwell migration and wound healing, A549; format: cell-based, human; settings: at high doses
Procedure: Cell migration ability was measured using transwell chambers (8-μm pore size; Corning Costar, Cambridge, MA, USA). For the transwell assay, A549 and H460 cells suspended in serum-free RPMI-1640 medium containing different concentrations of L14e (0, 0.5, 1.0, and 1.5 μM) were seeded into the upper chamber. The lower chamber contained RPMI-1640 medium supplemented with 20% serum. After 24 h incubation, the filters were fixed in methanol and stained with 0.1% crystal violet. The upper faces of the filters were gently abraded, and the lower faces with cells migrated across the filters were imaged and counted under the microscope. For wound healing assays, cells were placed into 6-well plates and cultured until 100% confluence. An artificial scratch was created using a 200 μL pipette tip. Add serum-free RPMI-1640 medium containing different concentrations of drugs. At 24 h after culturing in serum-free medium, wound closure images were captured in the same field under magnification. Cell healing rates were calculated by the fraction of cell coverage across the line. These experiments were performed in triplicate and repeated three times.

EGFR kinase = EGFR kinase (Homo sapiens, UniProt P00533); assay: ADP-Glo kinase assay, EGFR; format: biochemical; settings: averages from triplicate assays
EGFR kinase, sequence (P00533 25-1210): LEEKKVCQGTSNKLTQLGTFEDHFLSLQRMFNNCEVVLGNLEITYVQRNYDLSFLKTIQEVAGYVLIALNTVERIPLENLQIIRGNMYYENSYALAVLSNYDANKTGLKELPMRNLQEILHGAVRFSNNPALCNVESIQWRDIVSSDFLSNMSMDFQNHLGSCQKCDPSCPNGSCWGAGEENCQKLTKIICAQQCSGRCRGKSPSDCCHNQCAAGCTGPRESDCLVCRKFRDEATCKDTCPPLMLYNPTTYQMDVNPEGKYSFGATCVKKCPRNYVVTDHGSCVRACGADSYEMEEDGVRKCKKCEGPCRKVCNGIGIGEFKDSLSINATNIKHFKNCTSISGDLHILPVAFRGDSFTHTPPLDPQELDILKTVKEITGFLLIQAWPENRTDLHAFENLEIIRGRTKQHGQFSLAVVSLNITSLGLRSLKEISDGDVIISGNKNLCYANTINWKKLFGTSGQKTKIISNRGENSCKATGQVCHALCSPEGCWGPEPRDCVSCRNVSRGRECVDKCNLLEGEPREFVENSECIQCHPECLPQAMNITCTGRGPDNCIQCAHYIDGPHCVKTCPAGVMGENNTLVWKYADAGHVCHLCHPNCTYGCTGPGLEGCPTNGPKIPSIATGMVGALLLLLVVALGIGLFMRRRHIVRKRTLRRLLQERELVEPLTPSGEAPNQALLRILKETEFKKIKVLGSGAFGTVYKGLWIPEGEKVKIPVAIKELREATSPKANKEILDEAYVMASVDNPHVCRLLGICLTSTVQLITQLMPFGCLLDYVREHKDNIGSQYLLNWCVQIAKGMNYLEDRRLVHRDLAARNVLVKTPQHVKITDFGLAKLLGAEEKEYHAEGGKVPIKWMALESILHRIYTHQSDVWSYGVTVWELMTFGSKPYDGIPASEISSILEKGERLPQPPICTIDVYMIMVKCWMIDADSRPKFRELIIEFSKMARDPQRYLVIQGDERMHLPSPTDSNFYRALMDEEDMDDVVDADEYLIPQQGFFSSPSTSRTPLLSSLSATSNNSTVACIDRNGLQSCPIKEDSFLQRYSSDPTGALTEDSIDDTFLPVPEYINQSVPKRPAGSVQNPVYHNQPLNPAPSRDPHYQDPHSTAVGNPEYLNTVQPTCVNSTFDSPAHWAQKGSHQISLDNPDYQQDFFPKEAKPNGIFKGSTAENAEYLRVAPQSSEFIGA
Procedure: (§1) The ADP-Glo™ kinase assay (Promega, Madison, WI) was used to screen target compounds for their inhibition effects for BRaf, EGFR kinase. The kinase assay was carried out in a 96-well plate, in a volume of 25 μL HEPES (pH 7.3) solvent containing 1.6 μg/mL EGF, and 20 ng of EGFR kinase, or 50 ng BRaf kinase, and 10 μM ATP (Promega, Madison, WI). […] Reactions in each well were started immediately by adding ATP and kept going for half an hour under 30 °C in a constant temperature incubator (Bluepard, Shanghai, China). After the plate cooled for 5 min at room temperature, 25 μl of ADP-Glo reagent was added into each well to stop the reaction and consume the remaining […] within 40 min. At the end, 50 μl of kinase detection reagent was added into the well and incubated for 1 h to produce a luminescence signal.

HCoEpiC cell line = assay: Selectivity index against HCoEpiC; format: cell-based; settings: SI = CC50/IC50
BRaf kinase = BRaf kinase (Homo sapiens, UniProt P15056); assay: ADP-Glo kinase assay, BRaf; format: biochemical; settings: averages from triplicate assays
BRaf kinase, sequence (P15056 whole entry): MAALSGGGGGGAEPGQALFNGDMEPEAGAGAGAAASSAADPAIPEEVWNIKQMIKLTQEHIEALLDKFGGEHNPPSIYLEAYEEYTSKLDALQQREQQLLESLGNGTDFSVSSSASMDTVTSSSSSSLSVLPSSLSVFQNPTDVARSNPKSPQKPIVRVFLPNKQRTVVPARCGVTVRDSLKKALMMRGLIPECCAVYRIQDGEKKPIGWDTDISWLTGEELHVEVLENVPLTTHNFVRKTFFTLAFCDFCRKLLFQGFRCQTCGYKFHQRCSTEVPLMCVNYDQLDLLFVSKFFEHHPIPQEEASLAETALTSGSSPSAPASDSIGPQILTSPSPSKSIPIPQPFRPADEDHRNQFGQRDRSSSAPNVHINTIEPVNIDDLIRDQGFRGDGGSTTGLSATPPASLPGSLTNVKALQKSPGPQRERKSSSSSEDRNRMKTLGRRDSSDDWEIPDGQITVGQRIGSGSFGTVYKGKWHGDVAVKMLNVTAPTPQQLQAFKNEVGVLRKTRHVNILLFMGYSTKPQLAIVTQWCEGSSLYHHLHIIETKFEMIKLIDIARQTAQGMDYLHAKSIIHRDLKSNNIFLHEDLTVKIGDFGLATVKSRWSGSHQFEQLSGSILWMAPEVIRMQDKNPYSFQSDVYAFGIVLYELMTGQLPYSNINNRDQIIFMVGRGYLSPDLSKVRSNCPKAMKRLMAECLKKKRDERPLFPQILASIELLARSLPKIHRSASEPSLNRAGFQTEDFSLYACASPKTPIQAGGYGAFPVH
Procedure: as §1

OVCAR-3 cells = assay: MTT assay OVCAR-3; format: cell-based; settings: Homo sapiens, 24h of treatment, mean ± SD
Procedure: (§2) Details are given in Supplementary Materials and Methods. Using probability unit and weighted regression method to calculate the IC50 value of compounds.
(§3) Total cells in the logarithmic growth phase were collected, digested using 0.25% pancreatic enzymes, and then diluted into single-cell suspensions using phosphate-buffered solution (PBS). These cells were seeded into 96-well plates at 4× 10^3-5× 10^3 cells per well (100 µL per well) and then A549, H460, OVCAR-3, SGC7901, MDA-MB-231, HCT116 and HepG2 were cultured at 37°Cin an incubator containing 5% CO2. After cell complete attachment, 100 µL of different concentrations of compounds (0.625 μM, 1.25 μM, 2.5μM, 5 μM, 10 μM) were added to the cells after the nutrient solution in each well was discarded, while no compound except 0.1% DMSO was added to cells in the control group; at the same time, each concentration was set up to 5 wells. In addition, 5 wells in each 96-well plate only received 100 µL of nutrient solution as a blank control. The plates were taken out after the cells were incubated with compounds for 24 h, and 20 µL of MTT solution (5 mg/mL) (Wuhan Boster Biotechnology Limited Company, Wuhan, China; item No. AR1156) was added into all the wells. After another time of incubation for 4 h at 37 °C, the nutrient solution in each well was discarded slowly, and 150 µL of DMSO was added to each well. The plates were shaken on a shaking table for 20 min. When the crystals were fully dissolved, the blank wells were used to zero the plate reader. The optical density (OD) of each well was detected at 490 nm. The IC50 value was determined as the concentration of the inhibitor that caused 50% inhibition. Using probability unit and weighted regression method to calculate the IC50 value of compounds.

SGC7901 cells = assay: MTT assay SGC7901; format: cell-based; settings: Homo sapiens, SGC-7901, 24h of treatment, mean ± SD
Procedure: as §2, §3

HPAEpiC cell line = assay: Selectivity index against HPAEpiC; format: cell-based; settings: SI = CC50/IC50
HTB-125 cell line = assay: Selectivity index against HTB-125; format: cell-based; settings: SI = CC50/IC50
A549 cells [2] = assay: MTT assay A549; format: cell-based, human; settings: Homo sapiens, A549, 24h of treatment, mean ± SD
Procedure: as §2, §3

human TS (hTS) = molecular target: T1, human TS (hTS) (Homo sapiens, UniProt P04818); assay: Thymidylate synthase (TS) spectrophotometric assay; format: biochemical; settings: averages from triplicate assays
T1 construct: purchased ProSpec-Tany
T1 sequence (P04818 whole entry): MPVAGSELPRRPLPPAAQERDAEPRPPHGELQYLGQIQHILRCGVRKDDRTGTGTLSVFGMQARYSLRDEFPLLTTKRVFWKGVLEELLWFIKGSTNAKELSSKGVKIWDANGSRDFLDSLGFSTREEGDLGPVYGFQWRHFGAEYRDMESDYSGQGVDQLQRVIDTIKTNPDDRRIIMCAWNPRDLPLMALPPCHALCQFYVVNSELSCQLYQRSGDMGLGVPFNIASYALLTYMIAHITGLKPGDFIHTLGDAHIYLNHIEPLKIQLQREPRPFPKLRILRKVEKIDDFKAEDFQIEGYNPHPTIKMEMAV
Procedure: Recombinant human thymidylate synthase purchased from ProSpec-Tany Company. TS was assayed spectrophotometrically at 30 °C and pH 7.4 in a mixture containing 0.1 M 2-mercaptoethanol, 0.0003 M (6R,S)-tetrahydrofolate, 0.012 M formaldehyde, 0.02 M MgCl2, 0.001 M dUMP, 0.04 M Tris–HCl, 30 nM hTS, and 0.00075 M NaEDTA. […] The reaction was initiated by the addition of an amount of enzyme yielding a change in absorbance at 340 nm of 0.016/min in the absence of inhibitor.

LO2 cell line = assay: Selectivity index against LO2; format: cell-based; settings: SI = CC50/IC50
MDA-MB-231 cells = assay: MTT assay MDA-MB-231; format: cell-based; settings: Homo sapiens, 24h of treatment, mean ± SD
Procedure: as §2, §3

HepG2 cells = assay: MTT assay HepG2; format: cell-based; settings: Homo sapiens, 24h of treatment, mean ± SD
Procedure: as §2, §3

HCT-116 cells = assay: MTT assay HCT-116; format: cell-based; settings: Homo sapiens, 24h of treatment, mean ± SD
Procedure: as §2, §3

SK-MES-1 cells = assay: MTT assay SK-MES-1; format: cell-based
IOSE80 cell line = assay: Selectivity index against IOSE80; format: cell-based; settings: SI = CC50/IC50
FVB mice = assay: Toxicity test in FVB mice; format: in vivo; settings: mice, 3 weeks
Procedure: Blood was collected from euthanized mice under isoflurane-induced deep anesthesia by cardiac puncture. After allowing blood coagulation at 4 °C, serum was collected by centrifugation at 3000 rpm for 10 min at 4 °C. Analysis of the level of ALT, AST, Glu and CRE in the serum was performed using a veterinary hematology analyzer (Fuji DRI-Chem 3500 s, Fujifilm, Tokyo, Japan) according to the manufacturer’s provided protocols. The histopathological changes in liver, lung, brain, and kidney were evaluated by using HE-stained section of the tissues (This part of the results is in the supplementary document).
Tissues were fixed in 10% neutral-buffered formalin for 24 h, embedded in paraffin, cut into 4-μm-thick sections, deparaffinized with xylene and processed with a graded ethanol series. Next, the sections were stained with HE and were observed using Eclipse Ts2 microscope (Nikon).

For `O=C(NNC(=O)c1ccccc1NS(=O)(=O)c1c[nH]c(=O)[nH]c1=O)c1cccc(Cl)c1` [Compound 10l, reference compound], the “SI (Selectivity index) GES-1” value (GES-1 cell line) was 14.25, the “inhibition of A549 cells migration” value (A549 cells [1]) was “could inhibit A549 cells migration at high doses” and the IC50 (EGFR kinase) was 2.71 µM. The “SI (Selectivity index) HCoEpiC” value (HCoEpiC cell line) was 4.09, the IC50 (BRaf kinase) was 1.67 µM and the IC50 (OVCAR-3 cells) was 2.08 ± 0.12 µM. For the same compound, the IC50 (SGC7901 cells) was 1.82 ± 0.08 µM, the “SI (Selectivity index) HPAEpiC” value (HPAEpiC cell line) was 16.56 and the “SI (Selectivity index) HTB-125” value (HTB-125 cell line) was 5.26. The IC50 (A549 cells [2]) was 1.26 ± 0.16 µM, the IC50 (human TS (hTS)) was 1.36 µM and the “SI (Selectivity index) LO2” value (LO2 cell line) was 12.57. It also gave an IC50 (MDA-MB-231 cells) of 2.04 ± 0.37 µM, an IC50 (HepG2 cells) of 7.66 ± 0.77 µM and an IC50 (HCT-116 cells) of 2.27 ± 0.23 µM. For the same compound, the “inhibition of SK-MES-1 cells” value (SK-MES-1 cells) was “did not inhibit” and the “SI (Selectivity index) IOSE80” value (IOSE80 cell line) was 11.90.

In the case of `Cc1ccccc1NC(=O)Nc1cccc(NS(=O)(=O)c2c[nH]c(=O)[nH]c2=O)c1` [Compound L15g, N'-(2-methylphenyl)-3-(2,4-dihydroxypyrimidine-5-sulfonamido)phenyl urea], the IC50 (EGFR kinase) is reported as over 10 µM, the IC50 (BRaf kinase) is reported as over 10 µM and the IC50 (OVCAR-3 cells) is reported as over 10 µM. It also gave an IC50 (SGC7901 cells) of 7.04 ± 0.87 µM, an IC50 (A549 cells [2]) of 8.75 ± 0.61 µM and an IC50 (human TS (hTS)) of over 10 µM. It also gave a melting point of 163 to 167 °C, an IC50 (MDA-MB-231 cells) of over 10 µM and an IC50 (HepG2 cells) of 7.66 ± 0.78 µM. The IC50 (HCT-116 cells) was 6.41 ± 1.83 µM.

Work on `Cc1cccc(NC(=O)Nc2cccc(NS(=O)(=O)c3c[nH]c(=O)[nH]c3=O)c2)c1` [Compound L15h, N'-(3-methylphenyl)-3-(2,4-dihydroxypyrimidine-5-sulfonamido)phenyl urea] yielded an IC50 (EGFR kinase) of 7.1 µM, an IC50 (BRaf kinase) of 6.38 µM and an IC50 (OVCAR-3 cells) of 5.98 ± 0.6 µM. For the same compound, the IC50 (SGC7901 cells) was 4.78 ± 0.62 µM, the IC50 (A549 cells [2]) was 1.46 ± 0.5 µM and the IC50 (human TS (hTS)) was 7.16 µM. For the same compound, the melting point was 165 to 169 °C, the IC50 (MDA-MB-231 cells) was 6.41 ± 0.41 µM and the IC50 (HepG2 cells) was 5.97 ± 0.21 µM. The IC50 (HCT-116 cells) was 6.15 ± 0.53 µM.

`Cc1ccc(NC(=O)Nc2cccc(NS(=O)(=O)c3c[nH]c(=O)[nH]c3=O)c2)cc1` [Compound L15i, N'-(4-methylphenyl)-3-(2,4-dihydroxypyrimidine-5-sulfonamido)phenyl urea] gave an IC50 (EGFR kinase) of 8.67 µM, an IC50 (BRaf kinase) of 7.23 µM and an IC50 (OVCAR-3 cells) of over 10 µM. The IC50 (SGC7901 cells) was 6.96 ± 1.53 µM, the IC50 (A549 cells [2]) was 4.18 ± 0.46 µM and the IC50 (human TS (hTS)) was 8.3 µM. The melting point was 173 to 175 °C, the IC50 (MDA-MB-231 cells) was 9.06 ± 1.13 µM and the IC50 (HepG2 cells) was 6.96 ± 0.59 µM. It also gave an IC50 (HCT-116 cells) of 9.5 ± 1.6 µM.

`Nc1nc2[nH]cc(CCc3ccc(C(=O)N[C@@H](CCC(=O)O)C(=O)O)cc3)c2c(=O)[nH]1` [PTX, pemetrexed, reference compound] gave an IC50 (OVCAR-3 cells) of 7.35 ± 0.6 µM, an IC50 (SGC7901 cells) of 6.96 ± 0.43 µM and an IC50 (A549 cells [2]) of 3.29 ± 0.15 µM. The IC50 (MDA-MB-231 cells) was 4.18 ± 0.14 µM, the IC50 (HCT-116 cells) was 4.64 ± 0.22 µM and the “histopathological changes in liver, lung, brain, and kidney (HE staining)” value (FVB mice) was “no visible pathological changes”. The “inhibition of SK-MES-1 cells” value (SK-MES-1 cells) was “did not inhibit”.
